According to patent publication US8436043B2 (Takeda Pharmaceutical Company Limited, priority 2008, dated 2013):

Target: T1, human glucagon receptor (Homo sapiens, UniProt P47871)
T1 construct: made in house; host or cells: FreeStyle CHO cells, transient transfection with pMSRαneo/hGCGR; membrane fraction (35,000 rpm pellet)
Assay: Glucagon binding inhibitory activity ([125I]-glucagon binding to glucagon receptor membrane protein)
Conditions: human glucagon receptor membrane protein, [125I]-glucagon, 90 min room temperature
Method: The glucagon binding inhibitory action of the compound of the present invention was evaluated by the following method.
(1) Cloning of Human Glucagon Receptor Gene
Human glucagon receptor gene was cloned by PCR reaction using human pancreas Marathon-ready cDNA (Clontech) as a template and the following primer set.
PCR reaction was performed using Advantage 2 polymerase (Clontech) and according to the attached protocol. The obtained PCR product was electrophoresed on an agarose gel (1%). An about 1.4 kb of DNA fragment containing a glucagon receptor gene was recovered from the gel and digested with restriction enzymes EcoRI and NotI. DNA treated with the restriction enzymes was electrophoresed on an agarose gel (1%). An about 1.4 kb of DNA fragment was recovered and ligated to plasmid pMSRαneo digested with restriction enzymes EcoRI and NotI to construct a human-type glucagon receptor expression plasmid DNA “pMSRαneo/hGCGR”.
(2) Preparation of Glucagon Receptor Membrane Protein
A human-type glucagon receptor was expressed using FreeStyle CHO Expression System (Invitrogen). A transient expression in FreeStyle CHO cell was performed using a human-type glucagon receptor expression plasmid DNA “pMSRαneo/hGCGR” and according to the manual attached to the FreeStyle CHO Expression System. The above-mentioned DNA was transfected and the cultured with shaking for 2 days (37° C., 8% CO2, 125 rpm). 2400 ml of culture medium was centrifuged at 2,000 rpm for 10 min and the cells were collected. The collected cells were washed with PBS, suspended in homogenate buffer [10 mM NaHCO3 (pH 7.4), 1 mM EDTA, Complete EDTA-free (Roche, 1 tablet/50 ml)] and disrupted by polytron cell disrupter (Kinematica AG). Disruption solution was centrifuged at 2,000 rpm for 10 min and the supernatant was collected.
(3) Measurement of Glucagon Binding Inhibitory Activity
The plate was stood for 90 min at room temperature. The reaction solution was transferred from the reaction plate to a 96 well unifilter GF/C plate (Perkin Elmer Inc.) using a cell harvester (Perkin Elmer Inc.) and the membrane fraction was collected on the filter by suction. The filter was presoaked in 2 mg/ml of polyethyleneimine to prevent non-specific adsorption of labeled ligand. The filter was washed 4 times with a reaction buffer and dried for 2 hr at 42° C. To each well was added 25 μl of scintillator (MicroScint0; Perkin Elmer Inc.), and the fluorescence amount was measured using a microplate scintillation counter (TopCount NXT™; Perkin Elmer Inc.).
In addition, the inhibitory rate (%) of the well added with the test compound (10 μM; containing 0.4% DMSO) was calculated, using the reaction rate of the well added only with 0.4% DMSO as 0% inhibitory rate, and the reaction rate of the well added with non-labeled glucagon (final concentration 1 μM) as 100% inhibitory rate.

T1 sequence (P47871 26-477): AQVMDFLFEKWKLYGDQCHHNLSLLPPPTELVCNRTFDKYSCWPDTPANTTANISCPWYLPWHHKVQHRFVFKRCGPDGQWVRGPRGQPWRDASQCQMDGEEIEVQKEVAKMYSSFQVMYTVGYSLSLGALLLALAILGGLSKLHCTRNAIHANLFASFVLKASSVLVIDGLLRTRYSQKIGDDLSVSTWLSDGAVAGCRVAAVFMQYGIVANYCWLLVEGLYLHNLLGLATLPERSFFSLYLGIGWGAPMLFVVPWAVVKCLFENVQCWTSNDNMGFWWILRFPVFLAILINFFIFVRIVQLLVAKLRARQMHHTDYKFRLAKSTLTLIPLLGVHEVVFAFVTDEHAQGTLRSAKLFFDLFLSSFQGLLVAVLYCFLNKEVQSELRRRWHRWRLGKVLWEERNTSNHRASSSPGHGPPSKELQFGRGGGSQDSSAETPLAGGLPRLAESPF

In the case of CN(CCC(=O)O)C(=O)c1ccc(NC(c2nn(C)c3ccccc23)C2CCCCC2)cc1 (centres unmarked) [Example A7, 3-{[(4-{[cyclohexyl(1-methyl-1H-indazol-3-yl)methyl]amino}phenyl)carbonyl](methyl)amino}propanoic acid], the IC50 is reported as 1800 nM.

Same assay, conditions: test compound 10 μM; 0.4% DMSO = 0%, non-labeled glucagon 1 μM = 100%

With Cc1c(C(Nc2ccc(C(=O)N(C)CCC(=O)O)cc2)C2CCCC2)sc2ccccc12 (centres unmarked) [Example A65, 3-{[(4-{[cyclopentyl(3-methyl-1-benzothiophen-2-yl)methyl]amino}phenyl)carbonyl](methyl)amino}propanoic acid] the “inhibitory rate (%) at 10 μM” value was 79%.

Same assay, conditions: test compound 10 μM; 0.4% DMSO = 0%, non-labeled glucagon 1 μM = 100%; read-out: inhibitory rate (%) at 10 μM

Compared with Cc1c(C(Nc2ccc(C(=O)N(C)CCC(=O)O)cc2)C2CCCC2)oc2ccc(F)cc12 (centres unmarked) [Example A68, 3-{[(4-{[cyclopentyl(5-fluoro-3-methyl-1-benzofuran-2-yl)methyl]amino}phenyl)carbonyl](methyl)amino}propanoic acid], Cc1c(C(Nc2ccc(C(=O)N(C)CCC(=O)O)cc2)C2CCCCC2)oc2ccc(F)cc12 (centres unmarked) [Example A37, 3-{[(4-{[cyclohexyl(5-fluoro-3-methyl-1-benzofuran-2-yl)methyl]amino}phenyl)carbonyl](methyl)amino}propanoic acid] is lower in inhibition at 10 µM: 82% for the first, 78% for the second.

First: Cc1c(C(Nc2ccc(C(=O)N(C)CCC(=O)O)cc2)C2CCCCC2)oc2ccc(OCC3(C)COC3)cc12 (centres unmarked) [Example A196, 3-[({4-[(cyclohexyl{3-methyl-5-[(3-methyloxetan-3-yl)methoxy]-1-benzofuran-2-yl}methyl)amino]phenyl}carbonyl)(methyl)amino]propanoic acid]
Second: Cc1c(C(Nc2ccc(C(=O)N(C)CCC(=O)O)cc2)C2CCCCC2)oc2cc(F)ccc12 (centres unmarked) [Example A97]
The inhibition at 10 µM of the first is higher: 87% for the first, 76% for the second.

First: Cc1c(C(Nc2ccc(C(=O)N(C)CCC(=O)O)cc2)C2CCCCC2)oc2ccc(NCc3ccccc3)cc12 (centres unmarked) [Example A131, 3-[{[4-({[5-(benzylamino)-3-methyl-1-benzofuran-2-yl](cyclohexyl)methyl}amino)phenyl]carbonyl}(methyl)amino]-propanoic acid]
Second: Cc1noc(C)c1-c1ccc2oc(C(Nc3ccc(C(=O)N(C)CCC(=O)O)cc3)C3CCCCC3)c(C)c2c1 (centres unmarked) [Example A178, 3-[{[4-({cyclohexyl[5-(3,5-dimethylisoxazol-4-yl)-3-methyl-1-benzofuran-2-yl]methyl}amino)phenyl]carbonyl}(methyl)amino]propanoic acid]
The inhibition at 10 µM of the first is higher: 87% for the first, 86% for the second.

Compared with CC(C)c1nn(-c2ccc(C(F)(F)F)cn2)cc1C(Nc1ccc(C(=O)NCCC(=O)O)cc1)C1CCCCC1 (centres unmarked) [Example 7, 3-[({4-[(cyclohexyl{3-(1-methylethyl)-1-[5-(trifluoromethyl)pyridin-2-yl]-1H-pyrazol-4-yl}methyl)amino]phenyl}carbonyl)amino]propanoic acid], Cc1nn(-c2ccc(C(F)(F)F)cc2)cc1C(Nc1ccc(C(=O)NCCC(=O)O)cc1)C1CCCCC1 (centres unmarked) [Example 27, 3-[({4-[(cyclohexyl{3-methyl-1-[4-(trifluoromethyl)phenyl]-1H-pyrazol-4-yl}methyl)amino]phenyl}carbonyl)amino]propanoic acid] is lower in inhibition at 10 µM: 72% for the first, 70% for the second.

Compared with Cc1c(C(CC(C)C)Nc2ccc(C(=O)NCCC(=O)O)cc2)oc2ccccc12 (centres unmarked) [Example A23, 3-{[(4-{[3-methyl-1-(3-methyl-1-benzofuran-2-yl)butyl]amino}phenyl)carbonyl]amino}propanoic acid], CCc1c(C(CC(C)C)Nc2ccc(C(=O)N(C)CCC(=O)O)cc2)oc2ccccc12 (centres unmarked) [Example A31, 3-{[(4-{[1-(3-ethyl-1-benzofuran-2-yl)-3-methylbutyl]amino}phenyl)carbonyl](methyl)amino}propanoic acid] is lower in inhibition at 10 µM: 77% for the first, 62% for the second.

Compared with O=C(O)CCNC(=O)c1ccc(NC(c2nn(C3CCCCC3)c3ccccc23)C2CCCCC2)cc1 (centres unmarked) [Example A19, 3-{[(4-{[cyclohexyl(1-cyclohexyl-1H-indazol-3-yl)methyl]amino}phenyl)carbonyl]amino}propanoic acid], CN(CCC(=O)O)C(=O)c1ccc(NC(c2nn(C)c3ccccc23)C2CCCCC2)cc1 (centres unmarked) [Example A7, 3-{[(4-{[cyclohexyl(1-methyl-1H-indazol-3-yl)methyl]amino}phenyl)carbonyl](methyl)amino}propanoic acid] is lower in inhibition at 10 µM: 71% for the first, 60% for the second.

Cc1c(C(Nc2ccc(C(=O)NCCC(=O)O)cc2)C(C)C)oc2ccc(OCc3ccccc3)cc12 (centres unmarked) [Example A171, 3-({[4-({1-[5-(benzyloxy)-3-methyl-1-benzofuran-2-yl]-2-methylpropyl}amino)phenyl]carbonyl}amino)propanoic acid] and Cc1c(C(Nc2ccc(C(=O)NCCC(=O)O)cc2)C2CCCCC2)oc2ccc(OCc3ccc(Cl)nc3)cc12 (centres unmarked) [Example A169, 3-{[(4-{[{5-[(6-chloropyridin-3-yl)methoxy]-3-methyl-1-benzofuran-2-yl}(cyclohexyl)methyl]amino}phenyl)carbonyl]amino}propanoic acid] are the same in inhibition at 10 µM: 86% for the first, 86% for the second.

First: Cc1c(C(CC(C)C)Nc2ccc(C(=O)N(C)CCC(=O)O)cc2)oc2ccc(Cl)cc12 (centres unmarked) [Example A101, 3-{[(4-{[1-(5-chloro-3-methyl-1-benzofuran-2-yl)-3-methylbutyl]amino}phenyl)carbonyl](methyl)amino}propanoic acid]
Second: CCC(CC)C(Nc1ccc(C(=O)N(C)CCC(=O)O)cc1)c1oc2ccc(F)cc2c1C (centres unmarked) [Example A72, 3-{[(4-{[2-ethyl-1-(5-fluoro-3-methyl-1-benzofuran-2-yl)butyl]amino}phenyl)carbonyl](methyl)amino}propanoic acid]
The inhibition at 10 µM of the first is lower: 76% for the first, 79% for the second.

Compared with CN(CCC(=O)O)C(=O)c1ccc(NC(c2cn(-c3ccc(C(F)(F)F)cn3)nc2C2CC2)C2CCCCC2)cc1 (centres unmarked) [Example 10, 3-[({4-[(cyclohexyl{3-cyclopropyl-1-[5-(trifluoromethyl)pyridin-2-yl]-1H-pyrazol-4-yl}methyl)amino]phenyl}carbonyl)(methyl)amino]propanoic acid], COc1nn(-c2ccc(OC(F)(F)F)cc2)cc1C(Nc1ccc(C(=O)N(C)CCC(=O)O)cc1)C1CCCCC1 (centres unmarked) [Example 63, 3-[({4-[(cyclohexyl{3-methoxy-1-[4-(trifluoromethoxy)phenyl]-1H-pyrazol-4-yl}methyl)amino]phenyl}carbonyl)(methyl)amino]propanoic acid] is lower in inhibition at 10 µM: 76% for the first, 72% for the second.

Going from Cc1c(C(Nc2ccc(C(=O)N(C)CCC(=O)O)cn2)C2CCCCC2)oc2ccc(F)cc12 (centres unmarked) [Example A52, 3-{[(6-{[cyclohexyl(5-fluoro-3-methyl-1-benzofuran-2-yl)methyl]amino}pyridin-3-yl)carbonyl](methyl)amino}propanoic acid] to Cc1c(C(Nc2ccc(C(=O)N(C)CCC(=O)O)cc2)C2CCCCC2)oc2ccc(OC3CCS(=O)(=O)CC3)cc12 (centres unmarked) [Example A199, 3-[({4-[(cyclohexyl{5-[(1,1-dioxidotetrahydro-2H-thiopyran-4-yl)oxy]-3-methyl-1-benzofuran-2-yl}methyl)amino]phenyl}carbonyl)(methyl)amino]propanoic acid], the inhibition at 10 µM rises from 64% to 88%.

Going from COc1cc(OC)cc(-n2cc(C(Nc3ccc(C(=O)NCCC(=O)O)cc3)C3CCCCC3)c(C)n2)c1 (centres unmarked) [Example 82, 3-({[4-({cyclohexyl[1-(3,5-dimethoxyphenyl)-3-methyl-1H-pyrazol-4-yl]methyl}amino)phenyl}carbonyl]amino)propanoic acid] to CN(CCC(=O)O)C(=O)c1ccc(NC(c2csc3ccccc23)C2CCCCC2)cc1 (centres unmarked) [Example A2, 3-{[(4-{[1-benzothiophen-3-yl(cyclohexyl)methyl]amino}phenyl)carbonyl](methyl)amino}-propanoic acid], the inhibition at 10 µM falls from 78% to 64%.

Going from Cc1c(C(Nc2ccc(C(=O)NCCC(=O)O)nc2)C2CCCCC2)sc2ccccc12 (centres unmarked) [Example A62, 3-{[(5-{[cyclohexyl(3-methyl-1-benzothiophen-2-yl)methyl]amino}pyridin-2-yl)carbonyl]amino}propanoic acid] to COc1ccc2oc(C(CCCCSC)Nc3ccc(C(=O)NCCC(=O)O)cc3)c(C)c2c1 (centres unmarked) [Example A120, 3-{[(4-{[1-(5-methoxy-3-methyl-1-benzofuran-2-yl)-5-(methylsulfanyl)pentyl]amino}phenyl)carbonyl]amino}propanoic acid], the inhibition at 10 µM falls from 81% to 73%.
